In patent publication US9186361B2, “Compounds and compositions for the treatment of parasitic diseases” (Novartis AG, priority 2013, dated 2015):

Assays:
Format in all cases: cell-based
[1] = test system: Leishmania donovani axenic amastigote parasites; assay: Assay for Leishmania proliferation in vitro (axenic amastigotes, Cell TiterGlo); details: 48 h, 2 day incubation, read-out: L. donovani amastigotes EC50
Method in brief: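 L. donovani axenic amastigotes (9600 per well) are cultured with compound for 2 days at 37° C, 5% CO2 in RPMI-based medium at pH 5.5. Viability is read by CellTiterGlo luminescence, and EC50 is calculated.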

[2] = test system: L. donovani HU3 strain in mouse peritoneal macrophages; assay: Proliferation of L. donovani in mouse peritoneal macrophages (SybrGreen, high-content imaging); details: Leishmania donovani, Peritoneal macrophage, 120 h; infected mouse peritoneal macrophages, 5 days; read-out: L. donavani Macrophage EC50
Method in brief: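 Peritoneal macrophages from uninfected BALB/c mice were infected for 24 h with spleen-derived amastigotes (9-11 week infected mice), then exposed to compound for 5 days at 37° C. Fixed cells stained with SybrGreen and parasite nuclei counted by high-content imaging; EC50 calculated from inhibition.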

[3] = test system: Trypanosoma cruzi amastigotes cultured in 3T3 fibroblast cells; assay: Assay for proliferation of kinetoplastid parasite Trypanosoma cruzi (beta-galactosidase/CPRG readout); details: NIH3T3, 144 h, Tulahuen strain in 3T3 cells, 6 day incubation, read-out: T cruzi EC50
Text: Compounds of the invention can be assayed to measure their capacity to inhibit proliferation of kinetoplastid parasite Trypanosoma cruzi. The screening procedure is for identifying compounds with inhibitor activity against Trypanosoma cruzi amastigotes cultured in 3T3 fibroblast cells. The assay is done using the mammalian stage (amastigotes) of T. cruzi that replicates in the intracellular space of host cells. The host cells are initially infected with the culture-derived trypomastigotes that rapidly invade and then divide as amastigotes. The protocol uses the Tulahuen strain of T. cruzi that has been engineered to express the E. coli beta-galactosidase gene (Lac-Z) (Antimicr. Agents Chemoth. 40:2592, 1996). This allows for a colorimetric readout by using the substrate CPRG and an absorbance plate reader.
3T3 fibroblast cells are re-suspended in RPMI-1640 medium without phenol red medium supplemented with 10% FBS (heat inactivated), 100 μg/ml penicillin, and 100 μg/ml streptomycin. Forty μL of suspension (1,000 cells) is dispensed into 384-well plates and incubated overnight at 37° C. temperature and in atmosphere containing 5% CO2. The following day, 100 nL of compounds of the invention in DMSO are added to plate wells containing 3T3 cells. At the same time control compounds (benznidazole and nifurtimox) and DMSO are added to plates to serve as the positive and negative controls, respectively. After that, 10 μL of media containing 10,000 T. cruzi trypomastigotes are added to each plate well and plates are placed back into incubators. After 6 day incubation, 10 μL of reagent solution (0.6 mM CPRG, 0.6% NP-40 in PBS) is added to plates and incubated at room temperature for 2 hours. Absorbance is then measured on SpectraMax Gemini fluorimeter to determine relative number of T. cruzi cells present in each plate well. The percentage inhibition of 50%, EC50, is calculated for each compound.

[4] = test system: Trypanosoma brucei Lister 427 strain; assay: Assay for proliferation of kinetoplastid parasite Trypanosoma brucei (Cell Titer Glo); details: bloodstream form, 48 hours, read-out: T. brucei EC50
Text: The proliferation is quantified by the addition of Cell Titer Glo (Promega®) a luminescent cell viability assay that measures the number of viable cells in culture based on the quantification of cellular ATP amount, which is an indicator of metabolically active cells. The following assay illustrates the invention without in any way limiting the scope of the invention. This parasite proliferation assay measures the increase in parasite growth using an assay that measures ATP activity, Cell Titer Glo®.
Trypanosoma brucei Lister 427 strain is grown in HMI-9 Trypanosome media for T. brucei bloodstream form. 30 μl of HMI-9 media is dispensed into 384 well assay plates. 200 nL of compounds of the invention (in DMSO), including anti-trypanosome controls (Pentamidine and suramin), are then transferred into the assay plates, as well as DMSO alone to serve as a negative control for inhibition. Then 25 μl of a suspension of T. brucei culture in HMI-9 media is dispensed into the assay plates. The final concentration of parasites in culture corresponds to 1.7% of 0.5 uM ATP activity with Cell Titer Glo® in HMI-9 media. The plates are placed in a 37° C. incubator for 48 hours in an atmospheric environment containing 5% CO2. 40 μl of Cell Titer Glo® is dispensed into the plates. The plates are then read for luminescence. The percentage inhibition of 50%, EC50, is calculated for each compound.

CC(C)OC(=O)Nc1cnc2nc(-c3cc(NC(=O)c4ccco4)ccc3Cl)[nH]c2c1 [Example 2, propan-2-yl N-{2-[2-chloro-5-(furan-2-amido)phenyl]-1H-imidazo[4,5-b]pyridin-6-yl}carbamate]
EC50 [1]: 0.19 µM
EC50 [2]: 0.315 µM
EC50 [3]: 0.142 µM
EC50 [4]: 0.039 µM

CCOC(=O)Nc1cnc2nc(-c3cccc(NC(=O)c4ccc(F)o4)c3)[nH]c2c1 [Example 3, ethyl N-{2-[3-(5-fluorofuran-2-amido)phenyl]-1H-imidazo[4,5-b]pyridin-6-yl}carbamate]
EC50 [1]: 7.7 µM
EC50 [2]: 2.47 µM
EC50 [3]: 2.23 µM
EC50 [4]: 0.23 µM

CC(C)(COC(=O)Nc1cnc2nc(-c3cc(NC(=O)c4ccco4)ccc3Cl)[nH]c2c1)NC(=O)OC(C)(C)C [Example 15, tert-butyl N-{1-[({2-[2-chloro-5-(furan-2-amido)phenyl]-1H-imidazo[4,5-b]pyridin-6-yl}carbamoyl)oxy]-2-methylpropan-2-yl}carbamate]
EC50 [1]: 5.1 µM
EC50 [2]: 8.7 µM
EC50 [3]: 1.85 µM
EC50 [4]: 0.64 µM

O=C(Nc1ccc(Cl)c(-c2nc3ncc(NC(=O)C(O)CO)cc3[nH]2)c1)c1ccco1 (stereo not drawn) [Example 18, N-{4-chloro-3-[6-(2,3-dihydroxypropanamido)-1H-imidazo[4,5-b]pyridin-2-yl]phenyl}furan-2-carboxamide]
EC50 [1]: 8.9 µM
EC50 [2]: 16.9 µM
EC50 [4]: 1.72 µM

Nc1cnc2nc(-c3cc(NC(=O)c4ccco4)ccc3Cl)[nH]c2c1 [Example 20, N-(3-{6-amino-1H-imidazo[4,5-b]pyridin-2-yl}-4-chlorophenyl)furan-2-carboxamide]
EC50 [1]: 13.6 µM
EC50 [2]: 18.9 µM
EC50 [3]: 4.7 µM
EC50 [4]: 1.38 µM

O=C(Nc1cccnc1)Nc1cnc2nc(-c3cc(NC(=O)c4ccco4)ccc3Cl)[nH]c2c1 [Example 21, N-[4-chloro-3-(6-{[(pyridin-3-yl)carbamoyl]amino}-1H-imidazo[4,5-b]pyridin-2-yl)phenyl]furan-2-carboxamide]
EC50 [1]: 17.7 µM
EC50 [2]: > 50 µM
EC50 [3]: > 20 µM
EC50 [4]: 1.59 µM

CC(C)(CO)C(=O)Nc1cnc2nc(-c3cc(NC(=O)c4ccco4)ccc3Cl)[nH]c2c1 [Example 22, N-{4-chloro-3-[6-(3-hydroxy-2,2-dimethylpropanamido)-1H-imidazo[4,5-b]pyridin-2-yl]phenyl}furan-2-carboxamide]
EC50 [1]: 20.7 µM
EC50 [2]: > 50 µM
EC50 [4]: 0.76 µM

CC(C)(N)C(=O)Nc1cnc2nc(-c3cc(NC(=O)c4ccco4)ccc3Cl)[nH]c2c1 [Example 26, N-{3-[6-(2-amino-2-methylpropanamido)-1H-imidazo[4,5-b]pyridin-2-yl]-4-chlorophenyl}furan-2-carboxamide]
EC50 [1]: > 25 µM
EC50 [2]: 23.3 µM
EC50 [3]: 14.8 µM
EC50 [4]: 0.53 µM

O=C(C[C@@H]1CCNC1)Nc1cnc2nc(-c3cc(NC(=O)c4ccco4)ccc3Cl)[nH]c2c1 [Example 32, N-[4-chloro-3-(6-{2-[(3S)-pyrrolidin-3-yl]acetamido}-1H-imidazo[4,5-b]pyridin-2-yl)phenyl]furan-2-carboxamide]
EC50 [1]: > 25 µM
EC50 [2]: > 50 µM
EC50 [3]: > 20 µM
EC50 [4]: 7.8 µM

O=C(C[C@H]1CCNC1)Nc1cnc2nc(-c3cc(NC(=O)c4ccco4)ccc3Cl)[nH]c2c1 [Example 34, N-[4-chloro-3-(6-{2-[(3R)-pyrrolidin-3-yl]acetamido}-1H-imidazo[4,5-b]pyridin-2-yl)phenyl]furan-2-carboxamide]
EC50 [1]: > 25 µM
EC50 [2]: > 50 µM
EC50 [3]: > 20 µM
EC50 [4]: 15.2 µM

O=C(Nc1ccc(Cl)c(-c2nc3ncc(NC(=O)C4(O)CC4)cc3[nH]2)c1)c1ccco1 [Example 35, N-(4-chloro-3-{6-[(1-hydroxycyclopropane)amido]-1H-imidazo[4,5-b]pyridin-2-yl}phenyl)furan-2-carboxamide]
EC50 [1]: 11.4 µM
EC50 [2]: > 50 µM
EC50 [3]: > 20 µM
EC50 [4]: 0.907 µM

N#CC1(C(=O)Nc2cnc3nc(-c4cc(NC(=O)c5ccco5)ccc4Cl)[nH]c3c2)CC1 [Example 41, N-(4-chloro-3-{6-[(1-cyanocyclopropane)amido]-1H-imidazo[4,5-b]pyridin-2-yl}phenyl)-furan-2-carboxamide]
EC50 [1]: 0.68 µM
EC50 [2]: 1.45 µM
EC50 [3]: 0.82 µM
EC50 [4]: 0.08 µM

COCC1(C(=O)Nc2cnc3nc(-c4cc(NC(=O)c5ccco5)ccc4Cl)[nH]c3c2)CC1 [Example 42, N-[4-chloro-3-(6-{[1-(methoxymethyl)cyclopropane]amido}-1H-imidazo[4,5-b]pyridin-2-yl)phenyl]furan-2-carboxamide]
EC50 [1]: 1.09 µM
EC50 [2]: 1.91 µM
EC50 [3]: 1.32 µM
EC50 [4]: 0.185 µM

O=C(Nc1ccc(Cl)c(-c2nc3ncc(NC(=O)C4CC4(F)F)cc3[nH]2)c1)c1ccco1 (stereo not drawn) [Example 44, N-(4-chloro-3-{6-[(2,2-difluorocyclopropane)amido]-1H-imidazo[4,5-b]pyridin-2-yl}phenyl)furan-2-carboxamide]
EC50 [1]: 2.38 µM
EC50 [2]: 5.3 µM
EC50 [3]: 3.9 µM
EC50 [4]: 0.282 µM

O=C(Nc1ccc(Cl)c(-c2nc3ncc(NC(=O)C4CC4)cc3[nH]2)c1)c1ccco1 [Example 45, N-(4-chloro-3-{6-cyclopropaneamido-1H-imidazo[4,5-b]pyridin-2-yl}phenyl)-furan-2-carboxamide]
EC50 [1]: 0.45 µM
EC50 [2]: 1.16 µM
EC50 [3]: 2.86 µM
EC50 [4]: 0.115 µM

CC(C)OC(=O)Nc1cnc2nc(-c3cc(NC(=O)c4ccc(F)o4)ccc3Cl)[nH]c2c1 [Example 47, propan-2-yl N-{2-[2-chloro-5-(5-fluorofuran-2-amido)phenyl]-1H-imidazo[4,5-b]pyridin-6-yl}carbamate]
EC50 [1]: 0.9 µM
EC50 [2]: 1.52 µM
EC50 [3]: 0.4 µM
EC50 [4]: 0.2 µM

CC(C)OC(=O)Nc1cnc2nc(-c3cc(NC(=O)c4ccc(C#N)o4)ccc3Cl)[nH]c2c1 [Example 48, propan-2-yl N-{2-[2-chloro-5-(5-cyanofuran-2-amido)phenyl]-1H-imidazo[4,5-b]pyridin-6-yl}carbamate]
EC50 [1]: 0.62 µM
EC50 [2]: 0.56 µM
EC50 [3]: 0.141 µM
EC50 [4]: 0.223 µM

CC1(OC(=O)Nc2cnc3nc(-c4cc(NC(=O)c5ccco5)ccc4Cl)[nH]c3c2)CC1 [Example 49, 1-methylcyclopropyl N-{2-[2-chloro-5-(furan-2-amido)phenyl]-1H-imidazo[4,5-b]pyridin-6-yl}carbamate]
EC50 [1]: 0.48 µM
EC50 [2]: 0.49 µM
EC50 [3]: 0.44 µM
EC50 [4]: 0.081 µM

CC(C)OC(=O)Nc1cnc2nc(-c3cc(NC(=O)N4CCCC4)ccc3Cl)[nH]c2c1 [Example 54, propan-2-yl N-(2-{2-chloro-5-[(pyrrolidin-1-yl)carbonylamino]phenyl}-1H-imidazo[4,5-b]pyridin-6-yl)carbamate]
EC50 [1]: 0.59 µM
EC50 [2]: 1.86 µM
EC50 [3]: 1.39 µM
EC50 [4]: 0.068 µM

O=C(Nc1ccc(Cl)c(-c2nc3ncc(NC(=O)C4CCC4)cc3[nH]2)c1)c1ccco1 [Example 55, N-(4-chloro-3-{6-cyclobutaneamido-1H-imidazo[4,5-b]pyridin-2-yl}phenyl)furan-2-carboxamide]
EC50 [1]: 0.95 µM
EC50 [2]: 0.83 µM
EC50 [3]: 1.25 µM
EC50 [4]: 0.075 µM
